Patent US20090221547A1, “Immunosuppressant Compounds and Compositions” (IRM LLC, priority 2005, published 2009)
pEC50: −log10 of the molar value.

Key:
[1] = test system: EDG-3, EDG-5, EDG-6 and EDG-8; assay: EDG-3, -5, -6 and -8 GTP [γ-35S] binding assays (SPA), CHO or RH7777 membranes; assay type: biochemical, human
Text: (§1) A. In vitro: A scintillation proximity assay (SPA) for measuring GTP [γ-^35S] binding to membranes prepared from CHO cells expressing human EDG/S1P receptors.
EC50 values are obtained by fitting the GTP [γ-^35S] binding curves (raw data) with the dose response curve-fitting tool of ORIGIN V. 6.1. Basal binding (no compound) and the highest stimulation of GTP [γ-^35S] binding achieved by an agonist are used as the fitting range. Seven different concentrations are used to generate a concentration response curve (using two or three data points per concentration).
Concentrations of EDG receptor expressing membranes range between 13-19 μg per well. […] For example, 5-[4-(2′-fluoro-2-trifluoromethyl-biphenyl-4-yloxymethyl)-phenyl]-pyridine-2-carboxylic acid has an EC50 of 0.9 nM in the above assay and is at least 500 fold selective for EDG-1 compared to one or more of the other receptors including EDG-3, EDG-5, EDG-6 and EDG-8.

[2] = test system: peripheral blood lymphocytes; assay: Blood lymphocyte depletion, measurement of circulating lymphocytes; assay type: in vivo; conditions: Rattus norvegicus, Lewis rats, oral gavage 0.01-5 mg/kg, blood 6 and 48 hours after administration, read-out: ED50, effective dose required displaying 50% of blood lymphocyte depletion
Description: C. In vivo: Screening Assays for Measurement of Blood Lymphocyte Depletion
Measurements of circulating lymphocytes: Compounds are dissolved in DMSO and PEG300 and diluted to obtain a final concentration of 2% DMSO and 2% PEG300 (v/v, final concentration). Lewis rats are administered compound solution orally by gavages at 0.01-5 mg/kg under short isoflurane anesthesia.
Blood is collected from the retro-orbital sinus 6 and 48 hours after drug administration under short isoflurane anesthesia. Whole blood samples are subjected to hematology analysis. Peripheral lymphocyte counts are determined using an automated analyzer. Subpopulations of peripheral blood lymphocytes are stained by fluorochrome-conjugated specific antibodies and analyzed using a fluorescent activating cell sorter (Facscalibur). Two to three rats are used to assess the lymphocyte depletion activity of each compound screened. The result is an ED50, which is defined as the effective dose required displaying 50% of blood lymphocyte depletion.

human EDG-1 = biological target: T1, human EDG-1 (Homo sapiens, UniProt P21453); assay: EDG-1 (S1P1) GTP [γ-35S] binding assay (SPA), membranes of CHO cells; assay type: biochemical; conditions: membranes from CHO cells expressing human EDG-1
T1 construct: c-myc (N); expressed in transfected cells; host or cells: CHO cell clones (membrane preparation)
Description: as §1
EDG-1 (S1P1) GTP [γ-^35S] binding assay: Membrane protein suspensions are prepared from CHO cell clones stably expressing a human EDG-1 N-terminal c-myc tag. Solutions of test compounds ranging from 10 mM to 0.0 nM are prepared in DMSO/50 mM HCl and then diluted into assay buffer (20 mM HEPES, pH7.4, 100 mM NaCl, 10 mM MgCl2, 0.1% fat free BSA). Assay buffer-containing […] is mixed with wheat-germ agglutinin-coated SPA-beads (1 mg/well) followed by the addition of human EDG-1 membrane protein suspension (10 μg/well) and test compound. The bead/membrane/compound assay components are then mixed for 10-15 minutes on a shaker at room temperature. GTP [γ-^35S] (200 pM) and bead/membrane/compound assay mixture are added to individual wells of a 96 well Optiplate™ (final volume 225 μl/well), sealed and incubated at room temperature for 110 to 120 minutes under constant shaking. After centrifugation (2000 rpm, 10 minutes) luminescence is measured with a TopCount™ instrument.
EC50 values are obtained by fitting the GTP [γ-^35S] binding curves (raw data) with the dose response curve-fitting tool of ORIGIN V. 6.1. […]

T1 sequence (P21453 whole entry): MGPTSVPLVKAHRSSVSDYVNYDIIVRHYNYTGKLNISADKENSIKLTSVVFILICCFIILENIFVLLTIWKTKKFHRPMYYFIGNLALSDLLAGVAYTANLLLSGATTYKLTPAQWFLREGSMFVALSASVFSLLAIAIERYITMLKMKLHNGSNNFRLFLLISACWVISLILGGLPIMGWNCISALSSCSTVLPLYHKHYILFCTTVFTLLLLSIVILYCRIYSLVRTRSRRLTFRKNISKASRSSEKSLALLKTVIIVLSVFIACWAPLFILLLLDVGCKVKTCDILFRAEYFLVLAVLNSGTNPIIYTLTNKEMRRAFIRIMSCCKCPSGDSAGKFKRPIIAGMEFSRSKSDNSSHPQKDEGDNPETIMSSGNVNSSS

- fold selective for EDG-1 compared to one or more of the other receptors including EDG-3, EDG-5, EDG-6 and EDG-8 [1]: at least 500 fold
- pEC50 (human EDG-1): 9.05
SMILES: O=C(O)c1ccc(-c2ccc(COc3ccc(-c4ccccc4F)c(C(F)(F)F)c3)cc2)cn1 [Example 1, 5-[4-(2′-Fluoro-2-trifluoromethyl-biphenyl-4-yloxymethyl)-phenyl]-pyridine-2-carboxylic acid]
- ED50 [2]: 0.3 mg/kg
